Target: T1, WT BTK protein (Homo sapiens, UniProt Q06187)
T1 construct: measured for intracellular BTK protein levels by Western blotting; endogenous in cells; host or cells: TMD-8 or RAMOS cells
Assay: BTK protein degradation assay (Western blotting), WT BTK
Format: cell-based
Conditions: concentration range accounting for 50% degradation of WT BTK protein, TMD-8 or RAMOS cells, 24 hours
Procedure: TMD-8, RAMOS, or 293T BTK MUT (C481S) cells were treated with the synthesized compounds and measured for intracellular BTK protein levels by Western blotting. The protocol of the experiment using TMD-8 cells is as follows.
TMD-8 cells were resuspended in an RPMI1640 medium (Hyclone, SH30027.01, 10% FBS (Hyclone, SV30207.02), 1% penicillin-streptomycin (Welgene, LS 202-02) and the cell suspension was seeded at a density of 1×10^6 cells/mL in an amount of 1 mL per well into 12-well plates.
The 12-well plates were treated as follows. A 10 mM stock was 1/10 diluted in series with DMSO ([…]) to form final concentrations of 10, 1, 0.1, 0.01, 0.001, and 0.0001 mM. The compounds with such concentrations were applied to cells, followed by harvesting the cells 24 hours later. For a negative control, a 1/10 dilution of DMSO in the medium (3 mL DMSO+27 mL medium) was used.
The 1-mL cell culture in each well was passed many times through a pipette and then transferred into a 1.5-mL microtube before centrifugation (500 g, 5 min, 4° C.). The supernatant was discarded and the cell pellet was washed with PBS. After centrifugation (500 g, 5 min, 4° C.) again, the supernatant was discarded and the cell pellet was taken.
A lysis buffer was prepared as follows. RIPA buffer (Biosesang, RC2038-050-00)+0.5 mM PMSF (SIGMA, P7626)+1×Protease/Phosphatase Inhibitor (Cell signaling, 5872S) was added in an amount […] per well and left for 30 minutes on ice (vortexing at 0 and 30 minutes) before sonication (5 cycles of pulse for 10 seconds and rest for 30 seconds, 70% amplification). The supernatant obtained by centrifugation (15000 g, 15 min, 4° C.) was transferred into a new microtube. Cells in each well of 96-well plates were 1/2 diluted with the RIPA buffer and incubated at 37° C. for 30 minutes with […] of a 50:1 mixture of BCA reagents A and B in BCA Protein Assay Kit (iNtRON, 21071). After being cooled for 10 minutes, the 96-well plates were measured for absorbance at 562 nm on the BioTek, SYNERGY H1 microplate reader. Samples were prepared by protein quantification based on the absorbance measurements and then boiled at 70° C. for 10 minutes. The sample buffer used in the case was prepared by mixing a NuPAGE or a Bolt 4× sample buffer (Invitrogen) and its 10× sample reducing agent depending on the gel to be used, and protein dilution was made in a RIPI buffer.
The samples were loaded in the same amount into a NuPAGE or Bolt Bis-tris 4-12% gradient gel and allowed to run therein (200 V, 35 minutes). The separated proteins were transferred onto a […] NC membrane, using Trans-blot Turbo (BIO-RAD) (1.3 A constant, 25V limit, 15 minutes). The membrane was blocked at room temperature for 1 hour with skim milk or Intercept Blocking Buffer (LI-COR, 927-60001):0.1% TBST=1:1. The membrane was incubated with Anti BTK Rabbit (1:1,000 in 5% skim milk/0.2% TBST, size: 77 kDa, Cell signaling Technology) at 4° C. overnight O/N or at room temperature for 2 hours and with Anti GAPDH Rabbit (1:10,000 in 5% BSA/0.2% TBST, size: 36 kDa, GENETEX) and Anti β-actin mouse (1:10,000 in 5% BSA/0.2% TBST, RT, size: 43 kDa, GENETEX) at room temperature for 1 or 3 hours. Then, the membrane was washed three times with 0.5% TBST for 5 minutes each time before incubation with the second antibody Anti-Rabbit IgG (1:5,000 in 5% Skim milk/TBST, CST), IRDye® 800CW Goat anti-Rabbit IgG Secondary Antibody (1:10,000 in 5% skim/TBST, RT 45 min), or IRDye® 680RD Goat anti-Mouse IgG Secondary Antibody (1:10,000 in 5% skim/TBST, RT 45 min) for 45 minutes at room temperature in a rocker. The membrane was washed five times with 0.5% TBST for 5 minutes in each time, followed by detection with LI-COR, Odyssey. In this regard, the detection proceeded, as it was, for house-keeping genes while using SuperSignal West Pico PLUS Chemiluminescent Substrate or SuperSignal West femto Maximum Sensitivity Substrate for BTK detection. […]

T1 sequence (Q06187 whole entry): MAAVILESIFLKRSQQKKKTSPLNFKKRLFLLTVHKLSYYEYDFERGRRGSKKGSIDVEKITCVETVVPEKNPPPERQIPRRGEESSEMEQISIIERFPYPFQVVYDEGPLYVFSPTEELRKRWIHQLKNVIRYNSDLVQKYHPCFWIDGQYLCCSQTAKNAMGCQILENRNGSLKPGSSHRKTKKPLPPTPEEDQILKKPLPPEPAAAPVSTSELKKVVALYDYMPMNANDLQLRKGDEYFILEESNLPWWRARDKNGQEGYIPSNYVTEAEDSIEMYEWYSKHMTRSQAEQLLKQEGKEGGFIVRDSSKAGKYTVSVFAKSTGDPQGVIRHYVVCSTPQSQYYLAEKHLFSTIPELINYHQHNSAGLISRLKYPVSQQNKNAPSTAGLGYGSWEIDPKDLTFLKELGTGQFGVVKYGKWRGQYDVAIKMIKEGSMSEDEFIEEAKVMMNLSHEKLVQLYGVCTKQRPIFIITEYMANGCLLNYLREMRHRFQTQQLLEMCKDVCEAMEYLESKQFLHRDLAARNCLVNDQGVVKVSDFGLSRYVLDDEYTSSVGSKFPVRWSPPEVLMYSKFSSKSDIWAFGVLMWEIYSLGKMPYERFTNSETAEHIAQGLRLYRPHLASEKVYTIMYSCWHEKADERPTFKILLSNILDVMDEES

| DC50 [nM] | SMILES |
| --- | --- |
| 10 to 1000 | Cc1cccc(C)c1Nc1nn(C)c2nc(Nc3ccc4c(c3)CN(C(=O)[C@@H]3CCCN3C(=O)CN3CCN(c5ccc6c(c5)C(=O)N(C5CCC(=O)NC5=O)C6=O)CC3)CC4)ncc12 (stereo partly drawn) [Compound 33, 5-(4-(2-((S)-2-(7-((3-((2,6-Dimethylphenyl)amino)-1-methyl-1H-pyrazolo[3,4-d]pyrimidin-6-yl)amino)-1,2,3,4-tetrahydroisoquinoline-2-carbonyl)pyrrolidin-1-yl)-2-oxoethyl)piperazin-1-yl)-2-(2,6-dioxopiperidin-3-yl)isoindoline-1,3-dione] |
| 10 to 1000 | Cc1cccc(C)c1Nc1nn(C)c2nc(Nc3ccc4c(c3)CN(C(=O)[C@@H]3CCCN3C(=O)COc3ccc5c(c3)C(=O)N(C3CCC(=O)NC3=O)C5=O)CC4)ncc12 (stereo partly drawn) [Compound 34, 5-(2-((S)-2-(7-((3-((2,6-Dimethylphenyl)amino)-1-methyl-1H-pyrazolo[3,4-d]pyrimidin-6-yl)amino)-1,2,3,4-tetrahydroisoquinoline-2-carbonyl)pyrrolidin-1-yl)-2-oxoethoxy)-2-(2,6-dioxopiperidin-3-yl)isoindoline-1,3-dione] |
| 0.1 to 10 | Cc1cccc(C)c1Nc1nn(C)c2nc(Nc3ccc4c(c3)CN(CC3CCN(C(=O)CNc5ccc6c(c5)C(=O)N(C5CCC(=O)NC5=O)C6=O)CC3)CC4)ncc12 (stereo not shown) [Compound 36, 5-((2-(4-((7-((3-((2,6-Dimethylphenyl)amino)-1-methyl-1H-pyrazolo[3,4-d]pyrimidin-6-yl)amino)-3,4-dihydroisoquinolin-2 (1H)-yl)methyl)piperidin-1-yl)-2-oxoethyl)amino)-2-(2,6-dioxopiperidin-3-yl)isoindoline-1,3-dione] |
| 0.1 to 10 | Cc1cccc(C)c1Nc1nn(C)c2nc(Nc3ccc4c(c3)CN(CC3CN(C(=O)CN5CCN(c6ccc7c(c6)C(=O)N(C6CCC(=O)NC6=O)C7=O)CC5)C3)CC4)ncc12 (stereo not shown) [Compound 39, 5-(4-(2-(3-((7-((3-((2,6-Dimethylphenyl)amino)-1-methyl-1H-pyrazolo[3,4-d]pyrimidin-6-yl)amino)-3,4-dihydroisoquinolin-2 (1H)-yl)methyl)azetidin-1-yl)-2-oxoethyl)piperazin-1-yl)-2-(2,6-dioxopiperidin-3-yl)isoindoline-1,3-dione] |
| 0.1 to 10 | Cc1cccc(C)c1Nc1nn(C)c2nc(Nc3ccc4c(c3)CN(C(=O)C3CCN(C(=O)COc5ccc6c(c5)C(=O)N(C5CCC(=O)NC5=O)C6=O)CC3)CC4)ncc12 (stereo not shown) [Compound 43, 5-(2-(4-(7-((3-((2,6-Dimethylphenyl)amino)-1-methyl-1H-pyrazolo[3,4-d]pyrimidin-6-yl)amino)-1,2,3,4-tetrahydroisoquinoline-2-carbonyl)piperidin-1-yl)-2-oxoethoxy)-2-(2,6-dioxopiperidin-3-yl)isoindoline-1,3-dione] |
| 0.1 to 10 | Cc1cccc(C)c1Nc1nn(C)c2nc(Nc3ccc4c(c3)CN(CC3CN(c5ccc6c(c5)C(=O)N(C5CCC(=O)NC5=O)C6=O)C3)CC4)ncc12 (stereo not shown) [Compound 47, 5-(3-((7-((3-((2,6-Dimethylphenyl)amino)-1-methyl-1H-pyrazolo[3,4-d]pyrimidin-6-yl)amino)-3,4-dihydroisoquinolin-2 (1H)-yl)methyl)azetidin-1-yl)-2-(2,6-dioxopiperidin-3-yl)isoindoline-1,3-dione] |
| 10 to 1000 | Cc1cccc(C)c1Nc1nn(C)c2nc(Nc3ccc4c(c3)CN(CC3CN(C(=O)COc5ccc6c(c5)C(=O)N(C5CCC(=O)NC5=O)C6=O)C3)CC4)ncc12 (stereo not shown) [Compound 49, 5-(2-(3-((7-((3-((2,6-Dimethylphenyl)amino)-1-methyl-1H-pyrazolo[3,4-d]pyrimidin-6-yl)amino)-3,4-dihydroisoquinolin-2 (1H)-yl)methyl)azetidin-1-yl)-2-oxoethoxy)-2-(2,6-dioxopiperidin-3-yl)isoindoline-1,3-dione] |

The remaining lines, values behind:

| SMILES | DC50 [nM] |
| --- | --- |
| Cc1cccc(C)c1Nc1nn(C)c2nc(Nc3ccc4c(c3)CN(CC3CN(C(=O)C5CCN(c6ccc7c(c6)C(=O)N(C6CCC(=O)NC6=O)C7=O)CC5)C3)CC4)ncc12 (stereo not shown) [Compound 40, 5-(4-(3-((7-((3-((2,6-Dimethylphenyl)amino)-1-methyl-1H-pyrazolo[3,4-d]pyrimidin-6-yl)amino)-3,4-dihydroisoquinolin-2 (1H)-yl)methyl)azetidine-1-carbonyl)piperidin-1-yl)-2-(2,6-dioxopiperidin-3-yl)isoindoline-1,3-dione] | 0.1 to 10 |
| Cc1cccc(C)c1Nc1nn(C)c2nc(Nc3cccc(CNCC4CCN(c5ccc6c(c5)C(=O)N(C5CCC(=O)NC5=O)C6=O)CC4)c3)ncc12 (stereo not shown) [Compound 41, 5-(4-(((3-((3-((2,6-Dimethylphenyl)amino)-1-methyl-TH-pyrazolo[3,4-d]pyrimidin-6-yl)amino)benzyl)amino)methyl)piperidin-1-yl)-2-(2,6-dioxopiperidin-3-yl)isoindoline-1,3-dione] | 10 to 1000 |
| Cc1cccc(C)c1Nc1nn(C)c2nc(Nc3cccc(CNCC4CCN(C(=O)C5CCN(c6ccc7c(c6)C(=O)N(C6CCC(=O)NC6=O)C7=O)CC5)CC4)c3)ncc12 (stereo not shown) [Compound 42, 5-(4-(4-(((3-((3-((2,6-Dimethylphenyl)amino)-1-methyl-1H-pyrazolo[3,4-d]pyrimidin-6-yl)amino)benzyl)amino)methyl)piperidine-1-carbonyl)piperidin-1-yl)-2-(2,6-dioxopiperidin-3-yl)isoindoline-1,3-dione] | 0.1 to 10 |
| Cc1cccc(C)c1Nc1nn(C)c2nc(Nc3ccc4c(c3)CN(C(=O)C3CCN(C(=O)CN5CCN(c6ccc7c(c6)C(=O)N(C6CCC(=O)NC6=O)C7=O)CC5)CC3)CC4)ncc12 (stereo not shown) [Compound 44, 5-(4-(2-(4-(7-((3-((2,6-Dimethylphenyl)amino)-1-methyl-1H-pyrazolo[3,4-d]pyrimidin-6-yl)amino)-1,2,3,4-tetrahydroisoquinoline-2-carbonyl)piperidin-1-yl)-2-oxoethyl)piperazin-1-yl)-2-(2,6-dioxopiperidin-3-yl)isoindoline-1,3-dione] | 0.1 to 10 |
| Cc1cccc(C)c1Nc1nn(C)c2nc(Nc3ccc4c(c3)CN(C(=O)C3CCN(C(=O)CNc5ccc6c(c5)C(=O)N(C5CCC(=O)NC5=O)C6=O)CC3)CC4)ncc12 (stereo not shown) [Compound 45, 5-((2-(4-(7-((3-((2,6-Dimethylphenyl)amino)-1-methyl-1H-pyrazolo[3,4-d]pyrimidin-6-yl)amino)-1,2,3,4-tetrahydroisoquinoline-2-carbonyl)piperidin-1-yl)-2-oxoethyl)amino)-2-(2,6-dioxopiperidin-3-yl)isoindoline-1,3-dione] | 0.1 to 10 |
| Cc1cccc(C)c1Nc1nn(C)c2nc(Nc3ccc4c(c3)CN(CC3CCN(C(=O)COc5ccc6nnn(C7CCC(=O)NC7=O)c(=O)c6c5)CC3)CC4)ncc12 (stereo not shown) [Compound 48, 3-(6-(2-(4-((7-((3-((2,6-Dimethylphenyl)amino)-1-methyl-1H-pyrazolo[3,4-d]pyrimidin-6-yl)amino)-3,4-dihydroisoquinolin-2 (1H)-yl)methyl)piperidin-1-yl)-2-oxoethoxy)-4-oxobenzo[d][1,2,3]triazin-3 (4H)-yl)piperidin-2,6-one] | 0.1 to 10 |
